From the supplement of paper PMC10307832 come the findings set out here.

Compound in the assay: O=C(c1cc(Cc2n[nH]c(=O)c3ccccc23)ccc1F)N1CCN(C(=O)C2CC2)CC1 [Olaparib]
As to the kind of experiment: relative viability (nuclei count vs DMSO), 5 days (fraction); higher = more cells survive. An outline of the steps:
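Acceptance criteria were a control CV below 25% and at least one doubling per plate. Lung cancer cell lines in 1536-well plates got five library-drug doses (not always all listed) √10 apart by pinning and were left 5 days with no medium change. Viability divides treated-well nuclei by vehicle-well nuclei and is the median across plates. Nuclei were counted by MetaXpress from 4× Hoechst images.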

On to NCI-H1793, for which the relative viability is, setting by setting: (0.08 µM) 0.93; (0.253 µM) 0.856; (2.53 µM) 0.824; (8 µM) 0.776; (8 µM, anchor plate) 0.911.
